Reference: PubChem BioAssay AID179 (DTP/NCI, 2004)
Calls of active or inactive are those of the source.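 How the source made its calls: active means compounds giving half or more protection of infected cells from virus-caused growth loss, again on retest; inactive means the rest.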

Test system: CEM cells HIV-1 protection, formazan growth assay
Assay: NCI AIDS Antiviral Assay
Conditions: for IC50: measured here: growth of uninfected CEM cells
Summary of the method: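 Protection of CEM cells against HIV-1 measured as cell growth via soluble formazan read-out, with five concentrations tested on both infected and uninfected cells; failure to protect may reflect toxicity.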

Compound	EC50 [µM]	IC50 [µM]	outcome
CC(C)CCCC(C)[C@H]1CCC2C3CC[C@H]4C[C@@H](CCCP(=O)(c5ccccc5)c5ccccc5)CC[C@]4(C)C3CC[C@@]21C (stereo partly drawn)	> 50.1	> 50.1	
Cn1cc(NC(=O)Nc2cc(C(=O)Nc3cc(C(=O)Nc4ccc(P(=O)(O)O)c5cc(P(=O)(O)O)ccc45)n(C)c3)n(C)c2)cc1C(=O)Nc1cc(C(=O)Nc2ccc(P(=O)(O)O)c3cc(P(=O)(O)O)ccc23)n(C)c1	> 49	31.6	
COC1=CC(=O)C=C(OC)C1=O	> 214	1.12	
Cc1c(N=Nc2cc(N=Nc3ccc(N=Nc4ccc(O)c(C(=O)O)c4)cc3)c(N)cc2N)cccc1S(=O)(=O)O	25.7	> 100	
CCOC(=O)c1cc(/C=C/C(C)=C/C(=O)OC)oc1C	> 67.6	> 67.6	
CC1(C)C(O)CC[C@@]2(C)C1CC[C@]1(C)C2CC=C2[C@@H]3C[C@](C)(C(=O)O)CC[C@]3(C)CCC21C (stereo partly drawn)	> 200	27.5	
C=C(C)C1Cc2c(cc3c(c2O)c(=O)c2ccccc2n3C)O1 (stereo not drawn)	> 200	1.17	
O=C(NC12CC3CC(CC(C3)C1)C2)C(=O)c1c[nH]c2ccc([N+](=O)[O-])cc12	> 200	30.2	
Cc1ccnc2n[nH]nc12	> 1860	372	
c1cnc2c(c1)Oc1nc3ccccc3nc1S2	> 91.2	14.5	
Fc1c(F)c(F)c2c(c1F)CSc1nc3ccccc3n1-2	> 200	> 200	
CCOC(=O)C1=C(C)N(NC(N)=O)C(C)(O)C12CCOC2=O (stereo not drawn)	> 794	> 794	
Cc1ccc(S(=O)OC23CC4CC(CC(C4)C2)C3)cc1 (stereo not drawn)			inactive
O=[N+]([O-])c1ccc(NC(=S)Nc2ccccn2)cc1	> 200	19.1	
CCOP(=O)(OCC)/C(C#N)=C/c1cn(C)cn1	> 200	> 200	
Fc1ccc(C(=NCc2ccccc2)N2CCOCC2)cc1	> 200	> 200	
COC(=O)C12C=CC(C1)n1c(=O)n(-c3ccccc3)c(=O)n12 (stereo not drawn)	> 295	275	
CS(=O)(=O)CCOC(=O)ON1C(=O)CCC1=O	> 200	26.9	
O=c1c(-c2cccc(O)c2)coc2cc(O)c(O)cc12	> 200	10.5	
CC1=CC2O[C@@H]3C[C@@H](O)[C@](C)(C2(C)CC1=O)C31CO1 (stereo partly drawn)	> 200	3.72	
COC(=O)[C@@H](O)[C@]1(C(=O)OC)C2O[C@@H](OC)[C@@H]1CCCCCC[C@H]2O	> 200	> 200	

Compound	EC50 [µM]	IC50 [µM]	outcome
CC(=O)OCC1OC(n2c(Br)nc3c2c(=O)n(C)c(=O)n3C)C(OC(C)=O)C1OC(C)=O (stereo not drawn)	> 200	69.2	
Fc1cccc(Cl)c1C1SCc2nc3cc4ccccc4cc3n21 (stereo not drawn)	> 200	158	
COC(=O)C1=C(C)NC2(C)SC1C(C)C2C(=O)OC (stereo not drawn)	> 871	490	
Cc1cn(CCCCCOC(=O)NC(CCCNC(N)=O)C(=O)O)c(=O)[nH]c1=O (stereo not drawn)	> 200	> 200	
C1=Nc2ccccc2/C1=C/c1c[nH]c2ccccc12	0.0631	> 200	
N#CCc1c(C2(c3ccncc3)OCCO2)[nH]c2ccccc12	> 117	110	
COC(=O)C(=O)C(C(=O)OC)C(=O)C(=O)Nc1cc(Cl)c(Cl)cc1Cl (stereo not drawn)	> 17.4	> 17.4	
NC(=O)C(=CNC(=S)Nc1cccc(C(F)(F)F)c1)C(N)=O	> 200	> 200	
O=c1[nH]nc(-c2ccccc2)n1-c1cccc([N+](=O)[O-])c1	> 200	> 200	
CC1(Cl)C(=O)NC(=O)NC1O (stereo not drawn)	> 200	> 200	
COc1ccccc1N1C(=O)CSC1c1c[nH]c2ccccc12 (stereo not drawn)	> 288	186	
NC1CCCC2CCC(N)C12 (stereo not drawn)	> 200	9.55	
Cc1ccc(S(=O)(=O)c2c(N)c3nc4ccccc4n3c3nc4ccccc4nc23)cc1	> 4.57	> 4.57	
CCCc1cc(=O)oc2c3c(cc(OC)c12)O[C@H](C)[C@@H](C)[C@@H]3O	> 200		
COC(=N)CCNC(=O)C(O)C(O)C(=O)NCCC(=N)OC (stereo not drawn)	> 646	> 646	
CCN(CC)CCCNC(=O)Cc1ccccc1Nc1c(Cl)cccc1Cl	> 200	16.6	
CC1=C(C#N)C2C(=C(N)Oc3ccccc32)C(N)=N1 (stereo not drawn)	> 200	27.5	
Cc1cc([C@H](C#N)c2nc3ccccc3[nH]2)nc(Cl)n1	> 200	22.4	
COC(=O)C(C([CH-][N+](=O)[O-])c1ccccc1)[P+](c1ccccc1)(c1ccccc1)c1ccccc1 (stereo not drawn)	> 200	10.7	
COc1ccccc1CC1(O)OC(=O)c2ccccc21 (stereo not drawn)	> 200	> 200	
CN=C(Nc1cccc(C(F)(F)F)c1)SCc1ccc(N=C=S)cc1			inactive

Compound	EC50 [µM]	IC50 [µM]	outcome
COc1cc(C2C(C(=O)Nc3ccc([N+](=O)[O-])cc3)=C(C)NC(C)=C2C(=O)Nc2ccc([N+](=O)[O-])cc2)ccc1O	> 9.33	> 9.33	
Cc1cnc2c(c1)C(=O)C1=C(OC(C)(C)CC1O)C2=O (stereo not drawn)	> 26.3	3.39	
Cc1ccc(-c2cc(-c3ccccc3)c(C#N)c(=O)[nH]2)cc1	> 66.1	> 66.1	
C[C@@H]1OCC(O)C([C@H]2OC(c3ccccc3)=N[C@H]2CO)O1 (stereo partly drawn)	> 200	> 200	
C/C=C/OC1C(C2COC(C)(C)O2)OC2OC(C)(C)OC21 (stereo not drawn)	> 200	> 200	
Cc1cc(O)c(/C=N/C(=S)Nc2ccc(S(N)(=O)=O)cc2)c(=O)o1	> 200	> 200	
COc1cc(N=Nc2ccccc2)c2nccc(C)c2c1N			inactive
CC(C)=CCCC1(C)C=Cc2c(c(C)cc3c2[nH]c2ccccc23)O1 (stereo not drawn)	> 21.9	12	
CC(=O)Nc1ccc(S(=O)(=O)N/N=C/CN2C(=O)c3ccccc3C2=O)cc1	26.9	89.1	
O=C(O)c1c2c(cc3c1CC(Cc1ccccc1)C3=O)CCC2 (stereo not drawn)	> 200	64.6	
CCCC(=O)OC1C(OC(=O)CCC)C(OC(=O)CCC)C(OC(=O)CCC)C(OC(=O)CCC)C1OC(=O)CCC (stereo not drawn)	> 417	> 417	
CCOC(=O)C(Cc1c[nH]c2ccc(N)cc12)(NC(C)=O)C(=O)OCC	> 200	> 200	
CN(C)CCCN1C(=O)N(CCCN(C)C)c2c3cc(O)ccc3nc3c([N+](=O)[O-])ccc1c23	> 200	0.977	
C=CCOc1ccc2c(C)cc(=O)oc2c1C	> 112	102	
O=[N+]([O-])c1cc([N+](=O)[O-])c(/C=C/c2ccc(Cl)c(Cl)c2)cc1/C=C/c1ccc(Cl)c(Cl)c1	> 19.5	> 19.5	
COc1cccc(C2c3cc4c(cc3OC(NNC(N)=O)C2C)OCO4)c1O (stereo not drawn)	> 200	1.12	
CS1(=O)=NC(=N)c2ccccc21 (stereo not drawn)			inactive
COC(=O)c1nc(NN)[nH]c(=O)c1CCCCCc1c(C(=O)OC)[nH]c(NN)cc1=O	> 6.31	> 6.31	
Clc1ncc(Cl)c(Cl)n1			inactive
CC1=C(C)C(=O)C(C2=CC(=O)C=CC2=O)=C(C2=CC(=O)C=CC2=O)C1=O	> 200	9.77	
